According to EP4273147A1, “SUBSTITUTED SPIROLACTAMS, SALTS THEREOF AND THEIR USE AS HERBICIDALLY ACTIVE SUBSTANCES” (Bayer Aktiengesellschaft, priority 2022, dated 2023):

What was measured:
STEME = test: Herbicidal pre-emergence action (Table A6); type: in vivo, Stellaria media; conditions: visual grading after ca. 3 weeks
Source text: (§1) Seeds of mono- and dicotyledonous weed plants were sown in plastic pots (double sowings with one species of mono- and one species of dicotyledonous weed plants per pot), in sandy loam, and covered with soil.

ECHCG [1] = test: Herbicidal post-emergence action (Table B3); type: in vivo, Echinochloa crus-galli; conditions: application rate 1280 g/ha; rated visually after about 3 weeks
Experimental: (§2) Seeds of mono- and dicotyledonous weed plants were placed in plastic pots in sandy loam soil (doubly sown with in each case one species of mono- or dicotyledonous weed plants per pot), covered with soil and cultivated in a greenhouse under controlled growth conditions. 2 to 3 weeks after sowing, the test plants were treated at the one-leaf stage. […] After the test plants had been kept in the greenhouse under optimum growth conditions for about 3 weeks, the activity of the preparations was rated visually in comparison to untreated controls. For example, 100% activity = the plants have died, 0% activity = like control plants.

DIGSA = test: Herbicidal pre-emergence action (Table A12); type: in vivo, Digitaria sanguinalis; conditions: visual grading after ca. 3 weeks
Source text: as §1

LOLRI = test: Herbicidal pre-emergence action (Table A3); type: in vivo, Lolium rigidum; conditions: visual grading after ca. 3 weeks
Source text: as §1

SETVI = test: Herbicidal pre-emergence action (Table A5); type: in vivo, Setaria viridis; conditions: visual grading after ca. 3 weeks
Source text: as §1

POAAN [2] = test: Herbicidal pre-emergence action (Table A7); type: in vivo, Poa annua; conditions: visual grading after ca. 3 weeks; for pest or weed control at 1280 g/ha: Poa annua, pre-emergence, 504 h, read-out: pre-emergence activity against POAAN
Source text: as §1

ECHCG [3] = test: Herbicidal pre-emergence action (Table A2); type: in vivo, Echinochloa crus-galli; conditions: visual grading after ca. 3 weeks
Source text: as §1

KCHSC = test: Herbicidal pre-emergence action (Table A10); type: in vivo, Kochia scoparia; conditions: visual grading after ca. 3 weeks
Source text: as §1

POAAN [4] = test: Herbicidal post-emergence action (Table B7); type: in vivo, Poa annua
Experimental: as §2

MATIN = test: Herbicidal pre-emergence action (Table A4); type: in vivo, Matricaria inodora; conditions: visual grading after ca. 3 weeks
Source text: as §1

## O=C1N(Cc2ccccc2Cl)CCC12CCCN(Cc1cccc(F)c1F)C2=O (racemic) [I-049]
STEME; application rate 1280 g/ha
  pre-emergence activity against STEME: 90%
ECHCG [1]
  post-emergence activity against ECHCG: 90%
DIGSA; application rate 320 g/ha
  pre-emergence activity against DIGSA: 90%
LOLRI; application rate 320 g/ha
  pre-emergence activity against LOLRI: 90%
SETVI; application rate 320 g/ha
  pre-emergence activity against SETVI: 100%
POAAN [2]; application rate 320 g/ha
  pre-emergence activity against POAAN: 100%
ECHCG [3]; application rate 1280 g/ha
  pre-emergence activity against ECHCG: 100%

## O=C1N(Cc2cscc2Br)CCCC12CCCN(Cc1cscc1Br)C2=O (racemic) [I-186, 2,8-bis[(4-bromothiophen-3-yl)methyl]-2,8-diazaspiro[5.5]undecane-1,7-dione]
DIGSA; application rate 1280 g/ha
  pre-emergence activity against DIGSA: 90%
KCHSC; application rate 1280 g/ha
  pre-emergence activity against KCHSC: 90%

## O=C1N(Cc2ccc(F)cc2Cl)CCCC12CCCN(Cc1ccc(F)cc1Cl)C2=O (racemic) [I-070]
STEME; application rate 1280 g/ha
  pre-emergence activity against STEME: 90%
POAAN [2]; application rate 1280 g/ha
  pre-emergence activity against POAAN: 100%

## O=C1N(Cc2cc(Cl)cnc2Cl)CCCC12CCCN(Cc1cc(Cl)cnc1Cl)C2=O (racemic) [I-117]
SETVI; application rate 1280 g/ha
  pre-emergence activity against SETVI: 100%
POAAN [2]; application rate 1280 g/ha
  pre-emergence activity against POAAN: 100%

## N#Cc1ccccc1CN1CCCC2(CCCN(Cc3ccccc3C#N)C2=O)C1=O (racemic) [I-094]
SETVI; application rate 1280 g/ha
  pre-emergence activity against SETVI: 90%
POAAN [2]; application rate 1280 g/ha
  pre-emergence activity against POAAN: 100%

## O=C1N(Cc2ccsc2Br)CCCC12CCCN(Cc1ccsc1Br)C2=O (racemic) [I-216, 2,8-bis[(2-bromothien-3-yl)methyl]-2,8-diazaspiro[5.5]undecane-1,7-dione]
POAAN [2]; application rate 1280 g/ha
  pest or weed control at 1280 g/ha: 90%

## CCc1cc(CN2CCCC3(CCCN(Cc4cc(CC)no4)C3=O)C2=O)on1 (racemic) [I-100]
LOLRI; application rate 1280 g/ha
  pre-emergence activity against LOLRI: 100%
ECHCG [3]; application rate 1280 g/ha
  pre-emergence activity against ECHCG: 100%

## O=C1N(Cc2ccccc2C(F)F)CCCC12CCCN(Cc1ccccc1C(F)F)C2=O (racemic) [I-067]
SETVI; application rate 1280 g/ha
  pre-emergence activity against SETVI: 100%
POAAN [2]; application rate 320 g/ha
  pre-emergence activity against POAAN: 100%

## Cc1ccccc1CN1CCCC2(CCCN(Cc3cccs3)C2=O)C1=O (racemic) [I-043]
STEME; application rate 1280 g/ha
  pre-emergence activity against STEME: 90%
ECHCG [1]
  post-emergence activity against ECHCG: 90%
SETVI; application rate 1280 g/ha
  pre-emergence activity against SETVI: 100%
POAAN [2]; application rate 320 g/ha
  pre-emergence activity against POAAN: 100%
POAAN [4]; application rate 320 g/ha
  post-emergence activity against POAAN: 90%
ECHCG [3]; application rate 320 g/ha
  pre-emergence activity against ECHCG: 100%

## O=C1N(Cc2ccccc2Br)CCCC12CCCN(Cc1ccccc1Br)C2=O (racemic) [I-064]
SETVI; application rate 1280 g/ha
  pre-emergence activity against SETVI: 90%
POAAN [2]; application rate 1280 g/ha
  pre-emergence activity against POAAN: 100%
POAAN [4]; application rate 1280 g/ha
  post-emergence activity against POAAN: 100%
ECHCG [3]; application rate 1280 g/ha
  pre-emergence activity against ECHCG: 90%

## O=C1N(Cc2c(F)c(F)c(F)c(F)c2F)CCCC12CCCN(Cc1c(F)c(F)c(F)c(F)c1F)C2=O (racemic) [I-050]
STEME; application rate 1280 g/ha
  pre-emergence activity against STEME: 100%
ECHCG [1]
  post-emergence activity against ECHCG: 100%
SETVI; application rate 1280 g/ha
  pre-emergence activity against SETVI: 100%
POAAN [2]; application rate 1280 g/ha
  pre-emergence activity against POAAN: 100%
ECHCG [3]; application rate 1280 g/ha
  pre-emergence activity against ECHCG: 100%

## O=C1N(Cc2cnc(Br)s2)CCCC12CCCN(Cc1cnc(Br)s1)C2=O (racemic) [I-204, 2,8-bis[(2-bromo-1,3-thiazol-5-yl)methyl]-2,8-diazaspiro[5.5]undecane-1,7-dione]
LOLRI; Lolium rigidum, pre-emergence, 504 h, application rate 1280 g/ha, read-out: pre-emergence activity against LOLRI
  pest or weed control at 1280 g/ha: 90%
POAAN [2]; application rate 1280 g/ha
  pest or weed control at 1280 g/ha: 100%
ECHCG [3]; application rate 1280 g/ha
  pre-emergence activity against ECHCG: 100%

## Cc1ccccc1CN1CCCC2(CCN(Cc3cccc(F)c3F)C2=O)C1=O (racemic) [I-081]
STEME; application rate 1280 g/ha
  pre-emergence activity against STEME: 90%
DIGSA; application rate 320 g/ha
  pre-emergence activity against DIGSA: 90%
LOLRI; application rate 1280 g/ha
  pre-emergence activity against LOLRI: 90%
SETVI; application rate 1280 g/ha
  pre-emergence activity against SETVI: 100%
MATIN; application rate 1280 g/ha
  pre-emergence activity against MATIN: 90%
POAAN [2]; application rate 320 g/ha
  pre-emergence activity against POAAN: 100%

## O=C1N(Cc2cnc(Br)s2)CCCC12CCCN(Cc1cnc(Br)s1)C2=O (single isomer, unassigned; (-)) [I-206, (-)-2,8-bis[(2-bromo-1,3-thiazol-5-yl)methyl]-2,8-diazaspiro[5.5]undecane-1,7-dione]
STEME; application rate 1280 g/ha
  pre-emergence activity against STEME: 90%
DIGSA; application rate 1280 g/ha
  pre-emergence activity against DIGSA: 90%
LOLRI; application rate 1280 g/ha
  pre-emergence activity against LOLRI: 90%
SETVI; application rate 1280 g/ha
  pre-emergence activity against SETVI: 100%
POAAN [2]; application rate 320 g/ha
  pre-emergence activity against POAAN: 100%
ECHCG [3]; application rate 1280 g/ha
  pre-emergence activity against ECHCG: 100%

## Cc1ccccc1CN1CCC2(CCCN(Cc3ccccc3F)C2=O)C1=O (racemic) [I-088]
STEME; application rate 1280 g/ha
  pre-emergence activity against STEME: 90%
DIGSA; application rate 320 g/ha
  pre-emergence activity against DIGSA: 90%
LOLRI; application rate 1280 g/ha
  pre-emergence activity against LOLRI: 100%
SETVI; application rate 1280 g/ha
  pre-emergence activity against SETVI: 90%
KCHSC; application rate 320 g/ha
  pre-emergence activity against KCHSC: 90%
POAAN [2]; application rate 320 g/ha
  pre-emergence activity against POAAN: 100%

## COc1ccccc1CN1CCCC2(CCCN(c3ccccc3)C2=O)C1=O (racemic) [I-102]
STEME; application rate 1280 g/ha
  pre-emergence activity against STEME: 90%
SETVI; application rate 1280 g/ha
  pre-emergence activity against SETVI: 90%
POAAN [2]; application rate 1280 g/ha
  pre-emergence activity against POAAN: 90%
ECHCG [3]; application rate 1280 g/ha
  pre-emergence activity against ECHCG: 90%

## Cc1ccccc1CN1CCC2(CCCN(Cc3cccc(F)c3F)C2=O)C1=O (racemic) [I-080]
STEME; application rate 1280 g/ha
  pre-emergence activity against STEME: 90%
DIGSA; application rate 1280 g/ha
  pre-emergence activity against DIGSA: 100%
LOLRI; application rate 1280 g/ha
  pre-emergence activity against LOLRI: 90%
SETVI; application rate 1280 g/ha
  pre-emergence activity against SETVI: 100%
KCHSC; application rate 1280 g/ha
  pre-emergence activity against KCHSC: 100%
POAAN [2]; application rate 320 g/ha
  pre-emergence activity against POAAN: 100%
ECHCG [3]; application rate 1280 g/ha
  pre-emergence activity against ECHCG: 100%

## Cc1ccccc1CN1CCCC2(CCN(Cc3c(F)cccc3F)C2=O)C1=O (racemic) [I-077]
STEME; application rate 1280 g/ha
  pre-emergence activity against STEME: 90%
DIGSA; application rate 320 g/ha
  pre-emergence activity against DIGSA: 90%
LOLRI; application rate 320 g/ha
  pre-emergence activity against LOLRI: 100%
SETVI; application rate 1280 g/ha
  pre-emergence activity against SETVI: 100%
POAAN [2]; application rate 320 g/ha
  pre-emergence activity against POAAN: 100%

## O=C1N(Cc2c(F)cccc2C(F)(F)F)CCCC12CCCN(Cc1c(F)cccc1C(F)(F)F)C2=O (racemic) [I-041]
STEME; application rate 320 g/ha
  pre-emergence activity against STEME: 100%
POAAN [2]; application rate 1280 g/ha
  pre-emergence activity against POAAN: 90%

## O=C1N(Cc2ccsc2)CCCC12CCCN(Cc1ccccc1Cl)C2=O (racemic) [I-099]
LOLRI; application rate 1280 g/ha
  pre-emergence activity against LOLRI: 100%
SETVI; application rate 1280 g/ha
  pre-emergence activity against SETVI: 100%
ECHCG [3]; application rate 1280 g/ha
  pre-emergence activity against ECHCG: 100%

## O=C1N(Cc2c(F)ccc(F)c2Cl)CCCC12CCCN(Cc1c(F)ccc(F)c1Cl)C2=O (racemic) [I-078]
STEME; application rate 320 g/ha
  pre-emergence activity against STEME: 90%
POAAN [2]; application rate 1280 g/ha
  pre-emergence activity against POAAN: 100%

## Cc1cc(CN2CCCC3(CCCN(Cc4cc(C)no4)C3=O)C2=O)on1 (racemic) [I-195, 2,8-bis[(3-methyl-1,2-oxazol-5-yl)methyl]-2,8-diazaspiro[5.5]undecane-1,7-dione]
POAAN [2]; application rate 1280 g/ha
  pest or weed control at 1280 g/ha: 100%

## O=C1N(Cc2c(F)cccc2F)CCCC12CCCN(CC1CCCCC1)C2=O (racemic) [I-034]
STEME; application rate 1280 g/ha
  pre-emergence activity against STEME: 100%
DIGSA; application rate 1280 g/ha
  pre-emergence activity against DIGSA: 100%
LOLRI; application rate 1280 g/ha
  pre-emergence activity against LOLRI: 100%
SETVI; application rate 320 g/ha
  pre-emergence activity against SETVI: 90%
POAAN [2]; application rate 320 g/ha
  pre-emergence activity against POAAN: 100%
POAAN [4]; application rate 1280 g/ha
  post-emergence activity against POAAN: 90%
ECHCG [3]; application rate 1280 g/ha
  pre-emergence activity against ECHCG: 90%

## O=C1N(Cc2ccsc2)CCCC12CCCN(Cc1ccccc1F)C2=O (racemic) [I-104]
SETVI; application rate 320 g/ha
  pre-emergence activity against SETVI: 90%
MATIN; application rate 320 g/ha
  pre-emergence activity against MATIN: 90%
POAAN [2]; application rate 320 g/ha
  pre-emergence activity against POAAN: 100%
ECHCG [3]; application rate 320 g/ha
  pre-emergence activity against ECHCG: 90%

## Cc1ccccc1CN1CCCC2(CCN(Cc3ccccc3F)C2=O)C1=O (racemic) [I-086]
DIGSA; application rate 1280 g/ha
  pre-emergence activity against DIGSA: 100%
SETVI; application rate 1280 g/ha
  pre-emergence activity against SETVI: 90%
POAAN [2]; application rate 1280 g/ha
  pre-emergence activity against POAAN: 100%
ECHCG [3]; application rate 1280 g/ha
  pre-emergence activity against ECHCG: 100%
